This is an account of results in article PMC8344021, “Discovery of Small Molecule Bak Activator for Lung Cancer Therapy” (Theranostics, 2021).

Assay [1] concerns the target T1, BH3 deletion human Bak mutant protein (ΔBH3) (Homo sapiens, UniProt Q16611, DEL74-90).
T1 construct: His6; made in house; host or cells: Escherichia coli BL21 DE3
Nature of the assay: Isothermal titration calorimetry (ITC), BH3 deletion mutant. In kind it is binding. As for the experimental part:
The binding affinity of BKA-073 with Bak protein was examined by isothermal titration calorimetry (ITC) assay as described, [28]. ITC assay was carried out in the auto-iTC200 instrument (MicroCal, GE) at 25 °C. Purified recombinant human or mouse Bak protein was loaded into a 96 Deepwell PP plate. BKA-073 compound was then titrated stepwise into the protein for a total of 16 injections. Reference power and initial delay were set as 5 µCal/sec and 60s, respectively. A string speed of 750 rpm was used for the ITC measurements. The binding constant (Kd) value was determined by fitting the titration curve to a one-site binding mode, using the Origin software provided by the manufacturer.
To confirm the binding of BKA-073 with Bak, we first conducted a competitive fluorescence polarization (FP) assay using purified human Bak protein, fluorescent Bak BH3 domain peptide, and BKA-073 as described, [37]-[40]. […] There are multiple amino acid differences in the BH3 domains between Bak and other Bcl2 family members, which helps to explain why BKA-073 only binds to Bak but not to other Bcl2 family members (i.e. Bax, Bcl2, Bcl-XL, Bcl-w and Mcl-1). In addition to the FP assay, isothermal titration calorimetry (ITC) was also employed to measure Bak/BKA-073 binding. […] In addition to human Bak/BKA-073 binding, we measured mouse Bak/BKA-073 binding using ITC. […]
On the technique in general: Isothermal titration calorimetry measures the heat released or taken up as one component is titrated into another.

For assay [2], the system named is Bak oligomerization in A549 cells. Nature of the assay: Bak oligomerization by cross-linking with BMH. It is filed as cell-based, human. The conditions noted are these: 1μM, 24h, mitochondrial fraction, Western blot. As for the experimental part: Bak oligomerization was analyzed as described. Briefly, 10 mM Bis (maleimido) hexane (BMH) was added to the mitochondrial fraction dissolved in conjugation buffer (PBS, pH7.2) and 5mM EDTA was added for crosslinking between sulfhydryl groups of Bak proteins. The reaction mixture was incubated for 1h at room temperature. The reaction was stopped by adding quench solution (1M DTT) for 15min at room temperature. The reaction product was subjected to SDS-PAGE gel and analyzed by Western blot using a Bak antibody.
A pivotal step in the apoptosis process is the oligomerization of Bak, [44]. To assess whether BKA-073 affects the ability of Bak to form oligomers in the mitochondrial membrane, a cross-linking study with Bis (maleimido) hexane (BMH) was carried out. […] These findings indicate that BKA-073 can activate Bak through its oligomerization in mitochondria. It is known that formation of Bak oligomers in mitochondria promotes cytochrome c (Cyt c) release to induce apoptosis, [46].

Structures are written as SMILES.

T1 sequence (Q16611 with tags, fused parts or gaps DEL74-90 limits assumed): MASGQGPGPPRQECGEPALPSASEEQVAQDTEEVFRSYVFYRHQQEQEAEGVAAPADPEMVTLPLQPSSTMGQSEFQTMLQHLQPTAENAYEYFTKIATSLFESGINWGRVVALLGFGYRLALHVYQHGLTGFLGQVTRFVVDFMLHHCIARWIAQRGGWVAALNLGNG

`COc1ccc2nc3ccccc3c(NCCNCC(C)O)c2c1` (centres unmarked) [BKA-073]: the “binding to ΔBH3 Bak mutant” value in assay [1] was “failed to bind”. The Bak oligomerization result in assay [2] is “facilitated the formation of Bak dimers and trimers”.
